Assays:
[1] = source not given; cited from earlier work
VSV-G PsV = type: cell-based, vesicular stomatitis virus
SARS-CoV-2 PsV [2] = type: cell-based
[3] = system: SARS-CoV-2 (USA-WA1/2020); type: in vivo, K18-hACE2 mice infected with SARS-CoV-2; conditions: n = 8
SARS-CoV-2 PsV [4] = type: cell-based; remark: listed apart in the source
SARS-CoV PsV = type: cell-based
[5] = type: in vivo, K18-hACE2 mice; conditions: n = 8

ACE2: recombinant human angiotensin-converting enzyme 2, soluble, R&D Systems
pI [1]: ≈ 5.36
inhibition of VSV-G PsV infection (VSV-G PsV): This trend is not observed
time at which inhibition equals that of empty filaments (SARS-CoV-2 PsV [2]): ≤ 6 h
viral load in SARS-CoV-2-infected lungs [3]: negligible effect on viral load
inhibition of SARS-CoV-2 PsV infection (SARS-CoV-2 PsV [4]): strongly inhibited
inhibition of SARS-CoV PsV infection (SARS-CoV PsV): strongly inhibited
body weight loss [5]: similar
